Laboratory results taken from patent US6054435A, “6-O-substituted macrolides having antibacterial activity” (priority 1999, dated 2000).
Values after ≈ are worked out from the molar mass of the structure shown.

What was measured:
Test in all cases: in vitro antibacterial activity (MIC), agar dilution
Format in all cases: cell-based
Candida albicans CCH 442 = conditions: organism code TT; BHI agar, 35-37° C., 20 to 24 hours; unit assumed
How it was run: (§1)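 MIC was taken by eye as the lowest drug level showing no growth, only haze or isolated colonies relative to the growth control. Organisms were replicator-spotted at 1:100 (Streptococcus 1:10) onto BHI agar plates containing serial compound dilutions, with a same-class reference antibiotic plate included.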

[1] = system: Enterococcus faecium ATCC 8043; conditions: organism code II; BHI agar, 35-37° C., 20 to 24 hours; unit assumed
How it was run: as §1

Escherichia coli DC-2 = conditions: organism code SS; BHI agar, 35-37° C., 20 to 24 hours; unit assumed
How it was run: as §1

Escherichia coli JUHL = conditions: organism code QQ; BHI agar, 35-37° C., 20 to 24 hours; unit assumed
How it was run: as §1

Escherichia coli SS = conditions: organism code RR; BHI agar, 35-37° C., 20 to 24 hours; unit assumed
How it was run: as §1

[2] = system: Haemophilis Influenzae DILL AMP R; conditions: organism code WW; BHI agar, 35-37° C., 20 to 24 hours; unit assumed
How it was run: as §1

[3] = system: Micrococcus luteus ATCC 4698; conditions: organism code PP; BHI agar, 35-37° C., 20 to 24 hours; unit assumed
How it was run: (§2)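 Test compound serially diluted in Brain Heart Infusion agar across twelve plates; inocula of 1:100 dilution (1:10 for slow growers such as Streptococcus) applied by Steers replicator. MIC taken visually as lowest concentration giving no growth, slight haze or sparse isolated colonies versus drug-free growth control.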

[4] = system: Micrococcus luteus ATCC 9341; conditions: organism code OO; BHI agar, 35-37° C., 20 to 24 hours; unit assumed
How it was run: as §2

[5] = system: Mycobacterium smegmatis ATCC 114; conditions: organism code UU; BHI agar, 35-37° C., 20 to 24 hours; unit assumed
How it was run: as §1

[6] = system: Nocardia Asteroides ATCC9970; conditions: organism code VV; BHI agar, 35-37° C., 20 to 24 hours; unit assumed
How it was run: as §1

[7] = system: Staphylococcus aureus 1775; conditions: organism code GG; BHI agar, 35-37° C., 20 to 24 hours; unit assumed
How it was run: as §1

[8] = system: Staphylococcus aureus A-5278; conditions: organism code CC; BHI agar, 35-37° C., 20 to 24 hours; unit assumed
How it was run: as §1

[9] = system: Staphylococcus aureus A5177; conditions: organism code BB; BHI agar, 35-37° C., 20 to 24 hours; unit assumed
How it was run: as §1

[10] = system: Staphylococcus aureus ATCC 6538P; conditions: organism code AA; BHI agar, 35-37° C., 20 to 24 hours; unit assumed
How it was run: as §1

[11] = system: Staphylococcus aureus CMX 553; conditions: organism code FF; BHI agar, 35-37° C., 20 to 24 hours; unit assumed
How it was run: as §1

[12] = system: Staphylococcus aureus CMX 642A; conditions: organism code DD; BHI agar, 35-37° C., 20 to 24 hours; unit assumed
How it was run: as §1

[13] = system: Staphylococcus aureus NCTC10649M; conditions: organism code EE; BHI agar, 35-37° C., 20 to 24 hours; unit assumed
How it was run: as §1

[14] = system: Staphylococcus epidermidis 3519; conditions: organism code HH; BHI agar, 35-37° C., 20 to 24 hours; unit assumed
How it was run: as §1

[15] = system: Streptococcus Pneumonia 5649; conditions: organism code ZZA; BHI agar, 35-37° C., 20 to 24 hours; unit assumed
How it was run: as §1

[16] = system: Streptococcus Pneumonia 5979; conditions: organism code ZZ; BHI agar, 35-37° C., 20 to 24 hours; unit assumed
How it was run: as §1

[17] = system: Streptococcus Pneumonia ATCC6303; conditions: organism code XX; BHI agar, 35-37° C., 20 to 24 hours; unit assumed
How it was run: as §1

[18] = system: Streptococcus Pneumonia GYR 1171; conditions: organism code YY; BHI agar, 35-37° C., 20 to 24 hours; unit assumed
How it was run: as §1

[19] = system: Streptococcus agalactiae CMX 508; conditions: organism code KK; BHI agar, 35-37° C., 20 to 24 hours; unit assumed
How it was run: as §1

[20] = system: Streptococcus bovis A-5169; conditions: organism code JJ; BHI agar, 35-37° C., 20 to 24 hours; unit assumed
How it was run: as §1

[21] = system: Streptococcus pyogenes 930; conditions: organism code MM; BHI agar, 35-37° C., 20 to 24 hours; unit assumed
How it was run: as §1

[22] = system: Streptococcus pyogenes EES61; conditions: organism code LL; BHI agar, 35-37° C., 20 to 24 hours; unit assumed
How it was run: as §1

[23] = system: Streptococcus pyogenes PIU 2548; conditions: organism code NN; BHI agar, 35-37° C., 20 to 24 hours; unit assumed
How it was run: as §1

| Structure (SMILES) | MIC (Candida albicans CCH 442) | MIC [1] | MIC (Escherichia coli DC-2) | MIC (Escherichia coli JUHL) | MIC (Escherichia coli SS) | MIC [2] | MIC [3] | MIC [4] | MIC [5] | MIC [6] | MIC [7] | MIC [8] | MIC [9] | MIC [10] | MIC [11] | MIC [12] | MIC [13] | MIC [14] | MIC [15] | MIC [16] | other results |
| --- | --- | --- | --- | --- | --- | --- | --- | --- | --- | --- | --- | --- | --- | --- | --- | --- | --- | --- | --- | --- | --- |
| CC[C@H]1OC(=O)[C@H](C)C(=O)[C@H](C)[C@@H](O[C@@H]2O[C@H](C)C[C@H](N(C)C)[C@H]2O)[C@](C)(OC/C=C/c2ccc3ncc(-c4ccco4)cc3c2)C[C@@H](C)C(=O)[C@H](C)[C@H]2NC(=O)O[C@@]21C [Example 39] | > 100 µg/mL | 0.1 µg/mL (≈ 0.12 µM) | > 100 µg/mL | > 100 µg/mL | 0.78 µg/mL (≈ 0.937 µM) | 4 µg/mL (≈ 4.81 µM) | 0.2 µg/mL (≈ 0.24 µM) | 0.02 µg/mL (≈ 0.024 µM) | 0.39 µg/mL (≈ 0.469 µM) | 0.1 µg/mL (≈ 0.12 µM) | > 100 µg/mL | > 100 µg/mL | 0.2 µg/mL (≈ 0.24 µM) | 0.2 µg/mL (≈ 0.24 µM) | 0.2 µg/mL (≈ 0.24 µM) | 0.2 µg/mL (≈ 0.24 µM) | 0.2 µg/mL (≈ 0.24 µM) | 0.2 µg/mL (≈ 0.24 µM) | 0.25 µg/mL (≈ 0.3 µM) | 2 µg/mL (≈ 2.4 µM) | MIC [17]: 0.06 µg/mL (≈ 0.0721 µM); MIC [18]: 0.03 µg/mL (≈ 0.0361 µM); MIC [19]: 0.01 µg/mL (≈ 0.012 µM); MIC [20]: 0.01 µg/mL (≈ 0.012 µM); MIC [21]: 6.2 µg/mL (≈ 7.45 µM); MIC [22]: 0.01 µg/mL (≈ 0.012 µM); MIC [23]: 0.2 µg/mL (≈ 0.24 µM) |
| CC[C@H]1OC(=O)[C@H](C)C(=O)[C@H](C)[C@@H](O[C@@H]2O[C@H](C)C[C@H](N(C)C)[C@H]2O)[C@](C)(OC/C=C/c2cnc(-c3cncs3)s2)C[C@@H](C)C(=O)[C@H](C)[C@H]2NC(=O)O[C@@]21C [Example 60] | > 100 µg/mL | 0.02 µg/mL (≈ 0.0248 µM) | 100 µg/mL (≈ 124 µM) | 50 µg/mL (≈ 62.1 µM) | 0.2 µg/mL (≈ 0.248 µM) | 4 µg/mL (≈ 4.97 µM) | 0.02 µg/mL (≈ 0.0248 µM) | ≤ 0.005 µg/mL | 1.56 µg/mL (≈ 1.94 µM) | 0.01 µg/mL (≈ 0.0124 µM) | > 100 µg/mL | > 100 µg/mL | 0.05 µg/mL (≈ 0.0621 µM) | 0.1 µg/mL (≈ 0.124 µM) | 0.05 µg/mL (≈ 0.0621 µM) | 0.05 µg/mL (≈ 0.0621 µM) | 0.1 µg/mL (≈ 0.124 µM) | 0.1 µg/mL (≈ 0.124 µM) | 0.25 µg/mL (≈ 0.311 µM) | 1 µg/mL (≈ 1.24 µM) | MIC [17]: ≤ 0.004 µg/mL; MIC [18]: ≤ 0.004 µg/mL; MIC [19]: 0.01 µg/mL (≈ 0.0124 µM); MIC [20]: ≤ 0.005 µg/mL; MIC [21]: 3.1 µg/mL (≈ 3.85 µM); MIC [22]: 0.01 µg/mL (≈ 0.0124 µM); MIC [23]: 0.2 µg/mL (≈ 0.248 µM) |
| CC[C@H]1OC(=O)[C@H](C)C(=O)[C@H](C)[C@@H](O[C@@H]2O[C@H](C)C[C@H](N(C)C)[C@H]2O)[C@](C)(OC/C=C/c2cncc(-c3nccs3)c2)C[C@@H](C)C(=O)[C@H](C)[C@H]2NC(=O)O[C@@]21C [Example 51] | > 100 µg/mL | 0.05 µg/mL (≈ 0.0626 µM) | 25 µg/mL (≈ 31.3 µM) | 100 µg/mL (≈ 125 µM) | 0.2 µg/mL (≈ 0.25 µM) | 2 µg/mL (≈ 2.5 µM) | 0.2 µg/mL (≈ 0.25 µM) | 0.01 µg/mL (≈ 0.0125 µM) | 0.39 µg/mL (≈ 0.488 µM) | 0.05 µg/mL (≈ 0.0626 µM) | > 100 µg/mL | > 100 µg/mL | 0.05 µg/mL (≈ 0.0626 µM) | 0.1 µg/mL (≈ 0.125 µM) | 0.1 µg/mL (≈ 0.125 µM) | 0.1 µg/mL (≈ 0.125 µM) | 0.1 µg/mL (≈ 0.125 µM) | 0.1 µg/mL (≈ 0.125 µM) | 0.25 µg/mL (≈ 0.313 µM) | > 128 µg/mL | MIC [17]: ≤ 0.004 µg/mL; MIC [18]: ≤ 0.004 µg/mL; MIC [19]: 0.01 µg/mL (≈ 0.0125 µM); MIC [20]: 0.01 µg/mL (≈ 0.0125 µM); MIC [21]: 6.2 µg/mL (≈ 7.76 µM); MIC [22]: 0.02 µg/mL (≈ 0.025 µM); MIC [23]: 0.2 µg/mL (≈ 0.25 µM) |
